From patent US10072011B2, “Substituted bridged urea analogs as sirtuin modulators” (GlaxoSmithKline Intellectual Property (No.2) Limited, priority 2014, dated 2018)
Read-outs that look alike come from different tables or passages of the source.

Target: T1, SIRT1 (Homo sapiens, UniProt Q96EB6)
T1 sequence (Q96EB6 1-747): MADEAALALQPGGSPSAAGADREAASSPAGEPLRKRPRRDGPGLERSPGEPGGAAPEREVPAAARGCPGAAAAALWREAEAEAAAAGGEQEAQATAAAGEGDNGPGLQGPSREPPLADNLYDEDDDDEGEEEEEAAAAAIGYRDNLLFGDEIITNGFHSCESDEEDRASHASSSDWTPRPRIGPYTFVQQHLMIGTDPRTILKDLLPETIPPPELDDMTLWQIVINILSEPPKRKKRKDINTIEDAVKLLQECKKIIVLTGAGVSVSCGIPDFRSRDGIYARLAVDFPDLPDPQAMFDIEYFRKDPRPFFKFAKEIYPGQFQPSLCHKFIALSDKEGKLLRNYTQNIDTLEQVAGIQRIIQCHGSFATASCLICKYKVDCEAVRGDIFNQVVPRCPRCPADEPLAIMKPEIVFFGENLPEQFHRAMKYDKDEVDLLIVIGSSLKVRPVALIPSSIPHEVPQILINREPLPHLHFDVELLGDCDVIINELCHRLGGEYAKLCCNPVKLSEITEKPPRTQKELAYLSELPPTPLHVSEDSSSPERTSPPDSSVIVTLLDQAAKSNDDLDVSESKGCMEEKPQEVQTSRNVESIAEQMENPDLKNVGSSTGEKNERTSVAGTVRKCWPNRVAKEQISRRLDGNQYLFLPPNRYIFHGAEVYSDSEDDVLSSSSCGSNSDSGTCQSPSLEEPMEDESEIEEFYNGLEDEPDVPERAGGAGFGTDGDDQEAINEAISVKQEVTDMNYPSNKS
Experiment: Trp mass spectrometry assay of SIRT1 activation (Ac-R-H-K-K(Ac)-W-NH2 peptide)
Assay type: biochemical
Conditions: for Emax: 25 min, read-out: TRP MAX RESP (percent maximum fold activation)
Description: The Trp mass spectrometry assay was conducted as follows. […] The SIRT1 protein was obtained by cloning the SirT1 gene into a T7-promoter containing vector, which was then expressed in BL21(DE3) bacterial cells and purified as described in further detail below. Test compound was added at varying concentrations to this reaction mixture and the resulting reactions were monitored. After the 25 minute incubation with SIRT1, 10 μL of 10% formic acid was added to stop the reaction. The resulting reactions were sealed and frozen for later mass spec analysis. The relative SIRT1 activity was then determined by measuring the amount of O-acetyl-ADP-ribose (OAADPR) formed (or, alternatively, the amount of deacetylated Trp peptide generated) by the NAD-dependent sirtuin deacetylation reaction in the presence of varying concentrations of the test compound versus control reactions lacking the test compound. The degree to which the test agent activated deacetylation by SIRT1 was expressed as EC1.5 (i.e., the concentration of compound required to increase SIRT1 activity by 50% over the control lacking test compound), and Percent Maximum Activation (i.e., the maximum activity relative to control (100%) obtained for the test compound).
This time point was the same as that used for test compounds and, within the linear range, the endpoint represents a change in velocity.
For the above assay, SIRT1 protein was expressed and purified as follows. The SirT1 gene was cloned into a T7-promoter containing vector and transformed into BL21(DE3). The protein was expressed by induction with 1 mM IPTG as an N-terminal His-tag fusion protein at 18° C. overnight and harvested at 30,000×g. Cells were lysed with lysozyme in lysis buffer (50 mM Tris-HCl, 2 mM Tris[2-carboxyethyl]phosphine (TCEP), 10 μM ZnCl2, 200 mM NaCl) and further treated with sonication for 10 min for complete lysis. The protein was purified over a Ni-NTA column (Amersham) and fractions containing pure protein were pooled, concentrated and run over a sizing column (Sephadex S200 26/60 global). The peak containing soluble protein was collected and run on an Ion-exchange column (MonoQ). Gradient elution (200 mM-500 mM NaCl) yielded pure protein. This protein was concentrated and dialyzed against dialysis buffer (20 mM Tris-HCl, 2 mM TCEP) overnight. The protein was aliquoted and frozen at −80° C. until further use.
“NT” means not tested; “ND” means not determinable.

[1] = Trp peptide 0.5 μM, 120 μM βNAD+, 10 nM SIRT1, 25 min at 25° C., relative to control (100%)
[2] = Trp peptide 0.5 μM, 120 μM βNAD+, 10 nM SIRT1, 25 min at 25° C.

| SMILES | Emax [1] [%] | TRP Activity (EC1.5, concentration of test compound that results in 150% activation of SIRT1) [2] | Emax [%] |
| --- | --- | --- | --- |
| Cc1ncc(-c2cc(NC(=O)N3c4nc(C(=O)N[C@H](C)C(F)(F)F)ccc4N4CC[C@H]3C4)c(=O)n(C)c2)o1 [Example 319, (4S)—N5-(1-methyl-5-(2-methyloxazol-5-yl)-2-oxo-1,2-dihydropyridin-3-yl)-N7-((R)-1,1,1-trifluoropropan-2-yl)-3,4-dihydro-1,4-methanopyrido[2,3-b][1,4]diazepine-5,7(2H)-dicarboxamide] | < 150 | A (EC1.5<1 μM) |  |
| C[C@@H](NC(=O)c1ccc2c(n1)N(C(=O)Nc1cc3cn[nH]c3cn1)[C@H]1CCN2C1)C(F)(F)F [Example 170, (4S)—N5-(1H-pyrazolo[3,4-c]pyridin-5-yl)-N7-((R)-1,1,1-trifluoropropan-2-yl)-3,4-dihydro-1,4-methanopyrido[2,3-b][1,4]diazepine-5,7(2H)-dicarboxamide] | > 150 | A (EC1.5<1 μM) |  |
| CC(C)(C)NC(=O)c1ccc2c(n1)N(C(=O)Nc1ccccn1)[C@H]1CCN2C1 [Example 48, (4S)—N7-(tert-butyl)-N5-(pyridin-2-yl)-3,4-dihydro-1,4-methanopyrido[2,3-b][1,4]diazepine-5,7(2H)-dicarboxamide] | > 150 | B (EC1.5 1-25 μM) |  |
| O=C(Nc1ccc(Cl)cn1)N1c2nc(S(=O)(=O)NCC(F)(F)F)ccc2N2CC[C@H]1C2 [Example 277, (4S)—N-(5-chloropyridin-2-yl)-7-(N-(2,2,2-trifluoroethyl)sulfamoyl)-3,4-dihydro-1,4-methanopyrido[2,3-b][1,4]diazepine-5(2H)-carboxamide] |  | C (EC1.5>25 μM) | < 150 |
| O=C(O)CNC(=O)c1ccc2c(n1)N(C(=O)Nc1ccccn1)[C@H]1CCN2C1 [Example 14, 2-((4S)-5-(pyridin-2-ylcarbamoyl)-2,3,4,5-tetrahydro-1,4 methanopyrido[2,3-b][1,4]diazepine-7-carboxamido)acetic acid] | < 150 | C (EC1.5>25 μM) |  |
| O=C(NC1CC1(F)F)c1ccc2c(n1)N(C(=O)Nc1ccc(F)cn1)[C@H]1CCN2C1 (single isomer, unassigned) [Example 242] | > 150 | A (EC1.5<1 μM) |  |
| CS(=O)(=O)c1ccc(NC(=O)N2c3nc(C(=O)NCC(F)(F)F)ccc3N3CC[C@H]2C3)nc1 [Example 146, (4S)—N5-(5-(methylsulfonyl)pyridin-2-yl)-N7-(2,2,2-trifluoroethyl)-3,4-dihydro-1,4-methanopyrido[2,3-b][1,4]diazepine-5,7(2H)-dicarboxamide] | > 150 | B (EC1.5 1-25 μM) |  |
| COc1cc(C(=O)NCC(F)(F)F)nc2c1N1CC[C@@H](C1)N2C(=O)Nc1ccccn1 [Example 286, (4S)-9-methoxy-N5-(pyridin-2-yl)-N7-(2,2,2-trifluoroethyl)-3,4-dihydro-1,4-methanopyrido[2,3-b][1,4]diazepine-5,7(2H)-dicarboxamide] |  | A (EC1.5<1 μM) | > 150 |
| Cc1ccnc(NC(=O)N2c3nc(C(=O)NCC4CC4)ccc3N3CC[C@H]2C3)c1 [Example 110, (4S)—N7-(cyclopropylmethyl)-N5-(4-methylpyridin-2-yl)-3,4-dihydro-1,4-methanopyrido[2,3-b][1,4]diazepine-5,7(2H)-dicarboxamide] | > 150 | A (EC1.5<1 μM) |  |
| O=C(NC1CC1)c1ccc2c(n1)N(C(=O)Nc1ccccn1)[C@H]1CCN2C1 [Example 2, (4S)—N7-cyclopropyl-N5-(pyridin-2-yl)-3,4-dihydro-1,4-methano pyrido[2,3-b][1,4]diazepine-5, 7(2H)-dicarboxamide] | > 150 | A (EC1.5<1 μM) |  |
